The subject of one experiment is Proteus vulgaris. Briefly: Antibacterial activity against Proteus vulgaris assessed as inhibition zone at 10 mg/ml. The class given is functional. As to conditions: read-out: IZ.
A further experiment relates to Salmonella typhi. Briefly: Antibacterial activity against Salmonella typhi assessed as inhibition zone at 10 mg/ml. It is filed as functional, Salmonella enterica subsp. enterica serovar Typhi. The conditions noted are these: Salmonella enterica, read-out: IZ.
Experiment [1] concerns Escherichia coli. Briefly: Antibacterial activity against Escherichia coli assessed as inhibition zone at 10 mg/ml. It is filed as functional. As to conditions: read-out: IZ.
Experiment [2] has as its system Pseudomonas aeruginosa. The experiment in a line: Antibacterial activity against Pseudomonas aeruginosa assessed as inhibition zone at 10 mg/ml. The class given is functional. As to conditions: read-out: IZ.
A further experiment concerns Klebsiella pneumoniae. Briefly: Antibacterial activity against Klebsiella pneumoniae assessed as inhibition zone at 10 mg/ml. It is filed as functional. As to conditions: read-out: IZ.
Experiment [3] concerns Escherichia coli. The experiment in a line: Antibacterial activity against Escherichia coli MTCC […] by serial dilution method. The class given is functional.
Experiment [4] has as its system Staphylococcus epidermidis. The experiment in a line: Antibacterial activity against Staphylococcus epidermidis MTCC 6880 by serial dilution method. The class given is functional.
Another experiment deals with Bacillus subtilis. Briefly: Antibacterial activity against Bacillus subtilis MTCC 441 by serial dilution method. The class given is functional.
In the next experiment the test system is Aspergillus niger. Briefly: Antibacterial activity against Aspergillus niger MTCC 8189 by serial dilution method. The class given is functional.
The next experiment concerns Candida albicans. Briefly: Antibacterial activity against Candida albicans MTCC 227 by serial dilution method. It is filed as functional.
For experiment [5], the system named is Pseudomonas aeruginosa. Briefly: Antibacterial activity against Pseudomonas aeruginosa MTCC 424 by serial dilution method. It is filed as functional.

≈ marks a conversion by molar mass, not a printed value.

Zone of inhibition and MIC data for 30 compounds are collected here from ChEMBL document CHEMBL4699440, “Comprehensive review on the anti-bacterial activity of 1,2,3-triazole hybrids” (Eur J Med Chem, 2019).

One may read the MIC as the smallest concentration in the dilution series that meets the test's criterion for growth inhibition. Higher therefore signals a less susceptible organism.

`COc1ccc2nc(Cl)c(Cn3cc(COc4ccccc4Cl)nn3)cc2c1`: the zone of inhibition at 10000 µg/mL with Proteus vulgaris, with Salmonella typhi, in the experiment with Escherichia coli [1], with Pseudomonas aeruginosa [2] and in the experiment on Klebsiella pneumoniae was 7 mm throughout.

Turning to `Cc1cc(O)c(C(=O)/C=C/c2ccc(OCc3cn(-c4ccc([N+](=O)[O-])cc4)nn3)cc2)c(=O)o1`, the MIC (against Escherichia coli [3]; in experiment [4]; with Bacillus subtilis; against Aspergillus niger; against Candida albicans; against Pseudomonas aeruginosa [5]) was 3 µM (≈ 1.42 µg/mL) each time.

`Cc1cc(O)c(C(=O)/C=C/c2ccc(OCc3cn(Cc4ccc([N+](=O)[O-])cc4)nn3)cc2)c(=O)o1`: the MIC (against Escherichia coli [3]; in experiment [4]; with Bacillus subtilis; against Aspergillus niger; against Candida albicans; with Pseudomonas aeruginosa [5]) was 3 µM (≈ 1.47 µg/mL) throughout.

For the compound `Clc1nc2ccccc2cc1Cn1cc(COc2ccccc2)nn1`, the zone of inhibition at 10000 µg/mL in the experiment with Proteus vulgaris, in the experiment with Salmonella typhi, in the experiment with Escherichia coli [1], in the experiment on Pseudomonas aeruginosa [2] and in the experiment with Klebsiella pneumoniae was 7 mm in each case.

With `Cc1cccc(Cn2cc(COc3ccc(/C=C/C(=O)c4c(O)cc(C)oc4=O)cc3)nn2)c1`, the MIC (against Escherichia coli [3]; in experiment [4]; against Bacillus subtilis; against Aspergillus niger; against Candida albicans; in the experiment with Pseudomonas aeruginosa [5]) was 3 µM (≈ 1.37 µg/mL) each time.

`COc1ccc2nc(Cl)c(Cn3cc(COc4ccc(Cl)cc4)nn3)cc2c1`: the zone of inhibition at 10000 µg/mL with Proteus vulgaris, in the experiment with Salmonella typhi, with Escherichia coli [1], in the experiment on Pseudomonas aeruginosa [2] and in the experiment on Klebsiella pneumoniae was 7 mm each time.

With `Cc1cc(O)c(C(=O)/C=C/c2ccc(OCc3cn(-c4ccc(Br)cc4)nn3)cc2)c(=O)o1`, the MIC (in the experiment with Escherichia coli [3]; in experiment [4]; in the experiment with Bacillus subtilis; against Aspergillus niger; with Candida albicans; with Pseudomonas aeruginosa [5]) was 3 µM (≈ 1.52 µg/mL) in each case.

As to `Cc1cc(O)c(C(=O)/C=C/c2ccc(OCc3cn(Cc4ccc(Br)cc4)nn3)cc2)c(=O)o1`, the MIC (with Escherichia coli [3]; in experiment [4]; in the experiment on Bacillus subtilis; with Aspergillus niger; with Candida albicans; in the experiment on Pseudomonas aeruginosa [5]) was 3 µM (≈ 1.57 µg/mL) throughout.

`Cc1cc(O)c(C(=O)/C=C/c2ccc(OCc3cn(Cc4ccc(F)cc4)nn3)cc2)c(=O)o1`: the MIC (with Escherichia coli [3]; in [4]; with Bacillus subtilis; against Aspergillus niger; against Candida albicans; against Pseudomonas aeruginosa [5]) was 3 µM (≈ 1.38 µg/mL) throughout.

Turning to `Cc1cc(O)c(C(=O)/C=C/c2ccc(OCc3cn(Cc4cccc([N+](=O)[O-])c4)nn3)cc2)c(=O)o1`, the MIC (in the experiment with Escherichia coli [3]; in experiment [4]; against Bacillus subtilis; against Aspergillus niger; against Candida albicans; with Pseudomonas aeruginosa [5]) was 3 µM (≈ 1.47 µg/mL) in each case.

`Cc1cc(O)c(C(=O)/C=C/c2ccc(OCc3cn(-c4ccccc4)nn3)cc2)c(=O)o1`: the MIC (in the experiment on Escherichia coli [3]; in experiment [4]; in the experiment with Bacillus subtilis; in the experiment with Aspergillus niger; against Candida albicans; against Pseudomonas aeruginosa [5]) was 3 µM (≈ 1.29 µg/mL) in each case.

As to `COc1ccc2nc(Cl)c(Cn3cc(COc4ccc(NC(C)=O)cc4)nn3)cc2c1`, the zone of inhibition at 10000 µg/mL in the experiment with Proteus vulgaris, in the experiment on Salmonella typhi, in the experiment with Escherichia coli [1], with Pseudomonas aeruginosa [2] and in the experiment with Klebsiella pneumoniae was 7 mm in each case.

In the case of `COc1ccc2nc(Cl)c(Cn3cc(COc4ccccc4)nn3)cc2c1`, the zone of inhibition at 10000 µg/mL in the experiment on Proteus vulgaris, in the experiment with Salmonella typhi, in the experiment with Escherichia coli [1], with Pseudomonas aeruginosa [2] and in the experiment on Klebsiella pneumoniae was 7 mm in each case.

As to `Cc1cc(O)c(C(=O)/C=C/c2ccc(OCc3cn(Cc4ccccc4F)nn3)cc2)c(=O)o1`, the MIC (in the experiment with Escherichia coli [3]; in [4]; in the experiment with Bacillus subtilis; with Aspergillus niger; against Candida albicans; against Pseudomonas aeruginosa [5]) was 3 µM (≈ 1.38 µg/mL) each time.

For the compound `Cc1ccc2nc(Cl)c(Cn3cc(COc4ccc(Cl)c(C)c4)nn3)cc2c1`, the zone of inhibition at 10000 µg/mL in the experiment on Proteus vulgaris, with Salmonella typhi, with Escherichia coli [1], in the experiment on Pseudomonas aeruginosa [2] and in the experiment with Klebsiella pneumoniae was 7 mm in each case.

As to `CC(=O)Nc1ccc(OCc2cn(Cc3cc4ccccc4nc3Cl)nn2)cc1`, the zone of inhibition at 10000 µg/mL in the experiment with Proteus vulgaris, in the experiment with Salmonella typhi, with Escherichia coli [1], in the experiment on Pseudomonas aeruginosa [2] and in the experiment with Klebsiella pneumoniae was 7 mm in each case.

Regarding `Cc1ccc(OCc2cn(Cc3cc4ccccc4nc3Cl)nn2)cc1`, the zone of inhibition at 10000 µg/mL with Proteus vulgaris, with Salmonella typhi, in the experiment on Escherichia coli [1], with Pseudomonas aeruginosa [2] and in the experiment on Klebsiella pneumoniae was 7 mm each time.

As to `Cc1ccc2nc(Cl)c(Cn3cc(COc4ccccc4Cl)nn3)cc2c1`, the zone of inhibition at 10000 µg/mL in the experiment with Proteus vulgaris, in the experiment on Salmonella typhi, in the experiment on Escherichia coli [1], with Pseudomonas aeruginosa [2] and in the experiment with Klebsiella pneumoniae was 7 mm each time.

Turning to `CC(=O)Nc1ccc(OCc2cn(Cc3cc4cc(C)ccc4nc3Cl)nn2)cc1`, the zone of inhibition at 10000 µg/mL in the experiment with Proteus vulgaris, with Salmonella typhi, in the experiment on Escherichia coli [1], in the experiment on Pseudomonas aeruginosa [2] and in the experiment on Klebsiella pneumoniae was 7 mm throughout.

On to `COc1ccc2nc(Cl)c(Cn3cc(COc4ccc([N+](=O)[O-])cc4)nn3)cc2c1`, for which the zone of inhibition at 10000 µg/mL in the experiment with Proteus vulgaris, with Salmonella typhi, with Escherichia coli [1], in the experiment on Pseudomonas aeruginosa [2] and with Klebsiella pneumoniae was 7 mm each time.

Consider `O=[N+]([O-])c1ccc(OCc2cn(Cc3cc4ccccc4nc3Cl)nn2)cc1`, for which the zone of inhibition at 10000 µg/mL in the experiment on Proteus vulgaris, in the experiment with Salmonella typhi, with Escherichia coli [1], with Pseudomonas aeruginosa [2] and with Klebsiella pneumoniae was 7 mm each time.

As to `Clc1ccc(OCc2cn(Cc3cc4ccccc4nc3Cl)nn2)cc1`, the zone of inhibition at 10000 µg/mL with Proteus vulgaris, in the experiment with Salmonella typhi, in the experiment with Escherichia coli [1], with Pseudomonas aeruginosa [2] and in the experiment with Klebsiella pneumoniae was 7 mm in each case.

Consider `Cc1ccc2nc(Cl)c(Cn3cc(COc4ccc([N+](=O)[O-])cc4)nn3)cc2c1`, for which the zone of inhibition at 10000 µg/mL in the experiment with Proteus vulgaris, with Salmonella typhi, in the experiment with Escherichia coli [1], with Pseudomonas aeruginosa [2] and in the experiment with Klebsiella pneumoniae was 7 mm throughout.

For `COc1ccc2nc(Cl)c(Cn3cc(COc4ccc(C)cc4)nn3)cc2c1`, the zone of inhibition at 10000 µg/mL with Proteus vulgaris, in the experiment with Salmonella typhi, with Escherichia coli [1], with Pseudomonas aeruginosa [2] and in the experiment with Klebsiella pneumoniae was 7 mm throughout.

As for `Cc1ccc2nc(Cl)c(Cn3cc(COc4ccc(Cl)cc4)nn3)cc2c1`, the zone of inhibition at 10000 µg/mL in the experiment with Proteus vulgaris, in the experiment with Salmonella typhi, in the experiment on Escherichia coli [1], with Pseudomonas aeruginosa [2] and in the experiment with Klebsiella pneumoniae was 7 mm throughout.

As for `Clc1ccccc1OCc1cn(Cc2cc3ccccc3nc2Cl)nn1`, the zone of inhibition at 10000 µg/mL in the experiment on Proteus vulgaris, with Salmonella typhi, in the experiment on Escherichia coli [1], in the experiment on Pseudomonas aeruginosa [2] and with Klebsiella pneumoniae was 7 mm each time.

Regarding `Cc1ccc2nc(Cl)c(Cn3cc(COc4ccccc4)nn3)cc2c1`, the zone of inhibition at 10000 µg/mL with Proteus vulgaris, in the experiment on Salmonella typhi, in the experiment with Escherichia coli [1], in the experiment with Pseudomonas aeruginosa [2] and in the experiment with Klebsiella pneumoniae was 7 mm each time.

As to `COc1ccc2nc(Cl)c(Cn3cc(COc4ccc(Cl)c(C)c4)nn3)cc2c1`, the zone of inhibition at 10000 µg/mL in the experiment on Proteus vulgaris, in the experiment with Salmonella typhi, with Escherichia coli [1], with Pseudomonas aeruginosa [2] and with Klebsiella pneumoniae was 7 mm each time.

For `Cc1ccc(OCc2cn(Cc3cc4cc(C)ccc4nc3Cl)nn2)cc1`, the zone of inhibition at 10000 µg/mL in the experiment with Proteus vulgaris, in the experiment with Salmonella typhi, with Escherichia coli [1], in the experiment with Pseudomonas aeruginosa [2] and with Klebsiella pneumoniae was 7 mm in each case.

Regarding `Cc1cc(OCc2cn(Cc3cc4ccccc4nc3Cl)nn2)ccc1Cl`, the zone of inhibition at 10000 µg/mL with Proteus vulgaris, in the experiment with Salmonella typhi, in the experiment on Escherichia coli [1], in the experiment on Pseudomonas aeruginosa [2] and in the experiment on Klebsiella pneumoniae was 7 mm each time.
